Values after ≈ are worked out from the molar mass of the structure shown.
Columns and labels:
[1] = Solubility studies (crystalline and amorphous solubility, UV analysis); format: physicochemical; conditions: phosphate buffered saline (PBS), pH 6.8 PBS, 25 °C
Method: The “crystalline solubility” was measured by the following method. An excess amount of crystal IMC powder was added to 10 mL of pH 6.8 PBS. These mixtures were kept at 25 °C and stirred at 300 rpm for 48 h. Ultracentrifugation was performed at 12,000 rpm and 25 °C for 30 min to separate excess solids using an Optima L-100XP ultracentrifuge (Beckman Coulter Inc., Brea, CA, USA). Then 5 mL of the supernatant was taken for ultraviolet (UV) spectroscopy analysis. All samples were prepared in triplicate.
The solubility of the amorphous IMC in the presence of excipients was also determined by calculating the solution concentration evolved from SDs at 25 °C after 48 h. Briefly, IMC–SDs were prepared by solvent evaporation directly from scintillation vials using a rotary evaporator. Then, 10 mL of pH 6.8 PBS was added. Solution concentration measurements were conducted following the ultraviolet (UV) spectroscopy analysis. The concentration of IMC was calculated with a standard curve built before.

[2] = In vitro dissolution, USP II paddle method; format: physicochemical; conditions: at 90 min, pH 6.8 PBS
Method: The optimum ratios of all solid dispersion carriers were selected by drug release experiments in vitro. In vitro dissolution studies on pure IMC and SDs with different carriers were carried out using the United States Pharmacopeia Apparatus II (USP II) paddle method (100 rpm, 37 °C, and 250 mL pH 6.8 phosphate buffer solutions) with a ZRS-8G dissolution tester (Shanghai, China). Ten milligrams of sample powder was placed in the dissolution medium, and 5 mL of pH 6.8 phosphate buffer solution (PBS, artificial intestinal fluid) was withdrawn at pre-designed time intervals (0, 5, 10, 15, 20, 30, 40, 50, 60 and 90 min) prior to filtration. The concentration of samples was analyzed using an UV spectrophotometer (756 PC UV-2200, Shanghai, China) at 320 nm. All measurements were repeated three times.

[3] = In vivo pharmacokinetic study after oral administration; conditions: male, Sprague-Dawley, rat, plasma, rats, 40 mg/kg
Method: Male Sprague–Dawley rats (body weight 200 ± 20 g) were randomly divided into three groups (n = 3). Sprague–Dawley rats (200 ± 20 g) were obtained from Animal Experiment Center of Shanghai Institute of Material Medica, Shanghai, China. All animal experiments were performed by strictly following Institutional Animal Care and Use Committee (IACUC) guidelines (71044, 10 August 2019). Prior to the experiments, the rats were fasted overnight with free access to water. Aqueous suspensions of IMC, SDs with MSNs (F3), SDs with MSNs and Kollicoat IR (F6), and SDs with MSNs and HPMC (F9) at 40 mg/kg were orally administered, respectively, and blood samples (0.5 mL) were collected at different time points (0, 0.5, 1, 2, 4, 6, 8, 12, and 24 h) in microcentrifuge tubes containing heparin by retro-orbital venipuncture technique. The blood samples were immediately centrifuged at 4000 rpm for 10 min, and the supernatant was collected for further processing.
Plasma samples were processed as follows: 200 µL plasma samples were mixed with 20 µL of an internal standard solution (0.5 mg/mL naproxen), 90 µL 10% KH2PO4, and 1 mL dichloromethane, and then the mixture was vortexed for 3 min. Then, the mixture solutions were centrifuged at 10,000 rpm for 4 min, the organic layer was remained, and then the organic layer was evaporated in a gentle stream of nitrogen at room temperature. The residue was suspended in 100 µL of the mobile phase (acetonitrile:0.01 M H3PO4 = 55:45). After vortex mixing and centrifugation, samples were analyzed using HPLC.

[4] = based on Equations (6) and (7); cited from earlier work

solubility at 48 h [1]: 23 µg/mL (≈ 64.3 µM)
Folds (increase of cumulative dissolution rate compared to pure IMC) [2]: 1.00 ± 0.28 folds
Cumulative Drug Dissolution Rate (%) ([2]; 37 °C, 100 rpm, mean ± SD, n = 3): 27.43 ± 0.96%
Tmax [3]: 4 h
AUC(0-t) ([3]; mean ± SD, n = 3): 1240 ± 189 µg·h/mL
Cmax ([3]; mean ± SD, n = 3): 125 ± 3.8 µg/mL
SMILES: COc1ccc2c(c1)c(CC(=O)O)c(C)n2C(=O)c1ccc(Cl)cc1 [IMC, Indomethacin]
Hansen solubility parameter δ [4]: 24.8 MPa^1/2

— PMC7076385, “Evaluation of the Solid Dispersion System Engineered from Mesoporous Silica and Polymers for the Poorly Water Soluble Drug Indomethacin: In Vitro and In Vivo” (Pharmaceutics, 2020)
